Values of other authors as cited in patent publication US10376519B2, “Tricyclic lactams for use in HSPC-sparing treatments for Rb-positive abnormal cellular proliferation” (G1 Therapeutics, Inc., priority 2014, dated 2019).

Columns and labels:
[1] = in vivo
[2] = Grade 3/4 neutropenia and leukopenia, clinical trial studies

**Q.** Which results are given for `CC(=O)c1c(C)c2cnc(Nc3ccc(N4CCNCC4)cn3)nc2n(C2CCCC2)c1=O` [palbociclib, 6-acetyl-8-cyclopentyl-5-methyl-2-(5-piperazin-1-yl-pyridin-2-ylammino)-8H-pyrido-[2,3-d]-pyrimidin-7-one]?
**A.** T1/2 [1]: roughly 26.7 hours; patients requiring a dose interruption [2]: 71%; patients requiring a dose reduction [2]: 35%
